Measured values from US20110104121A1, “Female Reproductive Tract and Anal Prophylaxes” (priority 2008, published 2011).

Key:
[1] = systemic inflammatory response to E. coli endotoxin after hydrocortisone pre-treatment in volunteers; type: in vivo, human; conditions: for plasma G-CSF concentrations after LPS, vs Control Group: multiplex immunobead
Description: Materials and Methods. Participants (n=36) were healthy male and female volunteers who were taking no chronic medications (other than oral contraceptives) and who were between the ages of 18 and 55.
On Day 1 of the study, participants were randomized in a double-blind manner to a Control Group, a Stress Group or a Pharm Group. A peripheral intravenous catheter was inserted in a hospital outpatient facility where participants remained during the day. For six hours, Control Group participants received intravenous saline at […] by infusion pump; Stress Group participants received 1.5 μg/kg/minute hydrocortisone (SOLUCORTEF®, Upjohn) in normal saline at 10 ml/hour, and Pharm Group participants received 3.0 μg/kg/minute hydrocortisone in normal saline at 10 ml/hour. The following day (Day 2), participants were admitted to an acute care facility where a peripheral intravenous catheter was again inserted in a proximal arm vein. Continuous electrocardiographic and pulse oximetry measurements were initiated; blood pressure and core temperature were measured every 15 minutes for the next five hours and every 30 minutes for the next 4 hours. Participants received 10 ml/kg lactated Ringer's solution intravenously over the first 2 hours after which the infusion was decreased to 1.5 ml/kg/hour. After the first hour, participants were administered 2 ng/kg E. coli endotoxin intravenously over 2 minutes. Participants remained in the acute care facility for remainder of the day with continuous nursing care and under the direct supervision of a physician. The intravenous catheter was removed after 9 hours. The following day (Day 3) and 2 days later (Day 5), repeat blood samples were obtained by venipuncture.
Salivary free cortisol measurements were made on Day 1 to compare the in vivo cortisol pre-treatment with laboratory reports that typically test the effects of free glucocorticoid concentrations. On Day 2 of the study, total plasma cortisol was measured to allow for comparison with the many clinical reports that have assessed these hormones during experimental endotoxemia and in endotoxemic patients. For salivary free cortisol measurements, saliva samples were collected with a […]™ collection device and stored at −80° C. until analysis by SALIMETRICS® Expanded Range High Sensitivity Salivary Cortisol Enzyme Immunoassay Kit (State College, Pa.). The analytical sensitivity of this assay is 3 ng/dL. For total cortisol, plasma was separated from heparinized whole blood and stored at −80° C. until analysis for plasma cortisol on an […]® 1000 analyzer using a Siemens Cortisol kit (Los Angeles, Calif.). The analytical sensitivity of this assay is 0.2 μg/dL. All adrenocorticotropic hormone (ACTH) measurements were performed on the […]® 1000 analyzer using a Siemens ACTH kit (Los Angeles, Calif.). The analytical sensitivity of this assay is 9 pg/mL. C-reactive protein (CRP) measurements were performed on the Roche P Module using the Roche High Sensitivity CRP kit (Indianapolis, Ind.). Analytical sensitivity of this assay is 0.1 mg/L. Complete blood counts were performed on the ADVIA 120® Hematology Analyzer using Siemens reagents (Ramsey, Minn.).
Plasma samples were collected and frozen at −80° C. for batched measurement of TNFalpha, IL-6 and IL-10 concentrations. TNFalpha was measured using a TNFalpha sandwich ELISA (paired antibodies; BD Biosciences Pharmingen, San Diego, Calif.). IL-6 levels were determined using an IL-6 ELISA kit (Peprotech, Rocky Hill, N.J.). IL-10 was measured using an IL-10 ELISA kit (Biosource, Camarillo, Calif.). Further cytokine testing was completed on frozen samples using multiplex immunobead technology (Luminex Corp.) which combines the principle of a sandwich immunoassay with fluorescent bead-based technology, allowing individual and multiplex analysis of multiple analytes in a single microtiter well. […]

[2] = system: Monocytes-derived Dendritic cells (MDDCs); test: surface receptor expression on monocyte-derived dendritic cells, flow cytometry; type: cell-based, human
Protocol: Materials and Methods. Uterine epithelial cell line (ECC-1) was cultured according to established methods to establish cellular polarity with apical and basolateral compartments (Schaefer, et al. (2004) Immunology 112:428-436). The formation of tight junctions by the epithelial cell monolayer was routinely monitored by measurement of transepithelial resistance (TER) (Richardson, et al. (1995) Biol. Reprod. 53:488-498). […] The pooled media was centrifuged for 5 minutes at 10,000 g and stored at −80° C. for use in subsequent studies.
Peripheral blood mononuclear cells (PBMC) were obtained from residues of platelet pheresis according to known methods (Dietz, et al. (2006) Transfusion 46:2083-2089). Monocytes were subsequently enriched with Rosette Sep reagent (StemCell, Vancouver, BC). Blood specimens were from healthy adult males. Monocytes-derived Dendritic cells (MDDCs) were in vitro generated with GM-CSF (50 ng/ml) and IL-4 (50 ng/ml) (PeproTech Inc, Rocky Hill, N.J.) (Sallusto Lanzavecchia (1994) J. Exp. Med. 179:1109-1118). MDDCs were differentiated for 7 days in the presence or absence of 24-hour conditioned medium (1:1 dilution) obtained from ECC-1. In some experiments TGF-beta receptor 1 blocker, SB431542 (10 μM; Tocris Cookson, Inc., St. Louis, Mo.) (Eriksson, et al. (2006) Am. J. Reprod. Immunol. 56:321-328; Shen, et al. (2007) Clin. Exp. Immunol. 149(1):155-61) was simultaneously added with ECC-1 CM for the entire duration of the differentiation. As positive control for TGF-beta effects on MDDCs, experimental conditions were included in which MDDCs were differentiated with recombinant human TGF-beta1 at three different concentrations (0.1, 1 and 10 ng/mL) in the presence or absence of SB431542. Following 7 days of culture, cells were harvested, washed and subsequently used for flow cytometry analyses.
Following six days of in vitro differentiation, surface staining of MDDCs was performed with the following fluorochrome-labeled monoclonal antibodies: CD1a (HI149), CD14 (61D3), from Ebioscience (San Diego, Calif.); and CD163 (215927), CCR5 (45531), CXCR4 (12G5), DC-SIGN (120507) from R&D Systems (Minneapolis, Minn.). Matched isotype controls for the antibodies were used to control for non-specific binding. Following antibody staining, cells were washed with staining buffer and fixed with 2% methanol-free paraformaldehyde in 1×PBS (2% PFA), followed by analysis with a Becton Dickinson FACS CALIBUR (San Jose, Calif.). The acquired FACS data were analyzed by CELL QUEST (BD Biosciences).
Statistical analysis was performed using two-way analysis of variance (ANOVA) ([…] Prism Version 5.0; […] Software Inc., San Diego, Calif.). A value of P<0.05 was considered significant.

HIV-1 X4/T-tropic IIIB = test: TZM-bl infectivity assay, HIV-1 IIIB; type: cell-based
Protocol: (§1) The TZM indicator cell line is a HeLa cell derivative that expresses high levels of CD4, CCR5 and CXCR4 (Wei, et al. (2002) Antimicrob. Agents Chemother. 46(6):1896-905). The cells contain HIV long terminal repeat (LTR)-driven β-galactosidase and luciferase reporter cassettes that are activated by HIV tat expression.
(§2) TZM cells were seeded at 2×10^4 cells per well in a 96-well microtiter plate and allowed to adhere overnight at 37° C. Varying doses of recombinant human Trappin-2/Elafin (Peprotech, Rocky Hill, N.J.) were incubated with HIV-1 IIIB and BaL at multiplicity of infection (MOI) 1 for 1 hour at 37° C. in a final volume of 100 μl. Following incubation, the media was aspirated from TZM cells and the virus plus Trappin-2/Elafin was added to the cells along with 100 μl of TZM media. Luciferase activity was measured after 48 hours at 37° C. with 5% CO2 in a humidified incubator. Briefly, the supernatants were aspirated, and the cells were lysed with a BETA GLO luciferase assay substrate. Light intensity of each well was measured using a luminometer. Uninfected cells were used to determine background luminescence. All infectivity assays were performed in quadruplicate.
(§3) Other experiments were conducted in order to determine whether the inhibitory effects of Trappin-2/Elafin were at the cell surface level such as the blocking of a co-receptor. For these experiments, varying doses of Trappin-2/Elafin were directly added to TZM cells and incubated for 1 hour at 37° C. prior to washing with 1×PBS and addition of IIIB or BaL viruses. In additional experiments to determine possible post-infection mechanisms of inhibition by Trappin-2/Elafin, TZM cells were infected with HIV-1 IIIB and BaL at MOI 1 and were washed at 6 hours and 24 hours post-infection followed by the addition of 10 ng/ml rTrappin-2/Elafin. Assays were developed at 48 hours by addition of the BETA-GLO substrate and measuring relative light units using a luminometer.
(§4) Since HIV-1 is an important sexually transmitted pathogen, the activity of recombinant Trappin-2/Elaf in (rTrappin-2/Elafin) was evaluated against HIV-1 X4/T-tropic IIIB and R5/M-tropic BaL. HIV-1 IIIB and BaL were incubated with rTrappin-2/Elafin at 0.01, 0.1, 1, and 10 ng/ml for 1 hour at 37° C. TZM-bl indicator cells were plated the previous day at 25,000 cells per well and grown to 70-80% confluence. The virus-Trappin-2/Elafin mixture was added to the TZM cells and incubated for 48 hours at 37° C. At the end of the incubation period, BETA-GLO substrate was added to the cells and viral infection was quantified using a luminometer, expressed as relative light units (RLU). The data was expressed as percent of control with virus-only control set at 100%. […] Therefore, the concentrations of Trappin-2/Elafin showing anti-HIV-1 activity were in the range of physiological levels of this molecule that were secreted by the FRT epithelial cells. Since the inhibitory activity was observed as a result of pre-incubation of HIV-1 and rTrappin-2/Elafin, it is contemplated that the effect of Trappin-2/Elafin on viral infection was direct. […]
(§5) Laboratory-adapted viral strains HIV-1 IIIB (×4) and BaL (R5) were obtained and virus stocks were propagated in PHA-stimulated human PBMC and stored frozen at −80° C. Virus stocks produced in PBMC of molecularly cloned HIV-1 NL4.3 (×4; lab-adapted) and YU-2.c (R5; directly cloned without culture) were obtained. Virus titers were determined on TZM-bl cells as described herein. Also used was a PBMC-derived virus stock of pCH077.c, a recently generated Clade B infectious molecular clone matching the nucleotide sequence determined to be the transmitted/founder virus sequence of CHAVI subject 700010077. […]

HIV-1 R5/M-tropic BaL = test: TZM-bl infectivity assay, HIV-1 BaL; type: cell-based; conditions: for post-infection inhibition, BaL: 20 ng/mL
Protocol: as §1, §2, §3, §4, §5

[3] = cells pre-incubated 1 hour, washed before virus
[4] = virus pre-incubated 1 hour with 2, 20, 200 ng/mL, 48 hours

Compound: C[C@]12CCC(=O)C=C1CC[C@@H]1[C@@H]2[C@@H](O)C[C@@]2(C)[C@H]1CC[C@]2(O)C(=O)CO [hydrocortisone]
- release of early pro-inflammatory molecules ([1]; 1.5 μg/kg/minute at 10 ml/hr for six hours): significant enhancement
- Plasma IL-6 after LPS, vs Control Group ([1]; Pharm 3 μg/kg/min): no difference
- Plasma IL-10 after LPS, vs Control Group ([1]; Pharm 3 μg/kg/min): no difference
- TNF-alpha concentrations in plasma after LPS, vs Control Group ([1]; Pharm 3 μg/kg/min): not significantly different
- plasma G-CSF concentrations after LPS, vs Control Group ([1]; Pharm 3 μg/kg/min): no difference
- TNF-alpha concentrations in plasma after LPS, vs Control Group ([1]; Stress 1.5 μg/kg/min): not significantly different
- ACTH concentrations, vs Control Group ([1]; Stress 1.5 μg/kg/min, 3 and 4 hours after LPS injection): higher
- plasma G-CSF concentrations after LPS, vs Control Group ([1]; Stress 1.5 μg/kg/min): significant augmentation
- Plasma IL-6 after LPS, vs Control Group ([1]; Stress 1.5 μg/kg/min, p<0.005): significantly higher
- Plasma IL-10 after LPS, vs Control Group ([1]; Stress 1.5 μg/kg/min, p<0.05): significantly lower

Compound: NC(=O)c1ccc(-c2nc(-c3ccc4c(c3)OCO4)c(-c3ccccn3)[nH]2)cc1 [SB431542]
- modulatory effect of ECC-1 CM (suppression of DC-SIGN expression on MDDCs) ([2]; SB431542 10 μM added with ECC-1 CM during differentiation): abrogated
- expression of CD1a by CM-DC ([2]; TGF-beta receptor blocker with ECC-1 CM): no significant effect
- UEC conditioned medium effects on DC (enhanced CCR5 and CXCR4, suppressed DC-SIGN) ([2]; in vitro differentiation): abolished these effects

Compound: rCCL20/MIP3α: recombinant human CCL20/MIP3α (Peprotech)
- post-infection inhibition, IIIB (HIV-1 X4/T-tropic IIIB; added 6 and 24 hours post-infection, 20 ng/mL): no significant post-infection inhibition
- inhibition of X4/IIIB after pre-incubation of TZM cells (HIV-1 X4/T-tropic IIIB; [3]): no significant inhibition
- inhibition of X4/IIIB (HIV-1 X4/T-tropic IIIB; [4]): inhibited
- post-infection inhibition, BaL (HIV-1 R5/M-tropic BaL; added 6 hours post-infection): slight inhibition
- post-infection inhibition, BaL (HIV-1 R5/M-tropic BaL; added 24 hours post-infection): no significant post-infection inhibition
- inhibition of R5/BaL after pre-incubation of TZM cells (HIV-1 R5/M-tropic BaL; [3]): no significant inhibition
- inhibition of R5/BaL (HIV-1 R5/M-tropic BaL; [4]): inhibited
